Test results from ChEMBL document CHEMBL5214905 (J Med Chem, 2021).
The source made the active and inactive calls. The rule behind the calls is not given here.

Experiments:
[1] = target: Indoleamine 2,3-dioxygenase 1 (Homo sapiens, UniProt P14902); test: Inhibition of human IDO1 (12 to 403 aa) expressed in Escherichia coli Transetta (DE3) by nanodrop 2000c spectrophotometric analysis
[2] = system: MDR1; test: Apparent permeability in MDCKII expressing MDR1 cells across apical to basolateral side; assay type: ADME, cell-based, Canis lupus familiaris, MDCK-II; conditions: dog, MDCK-MDR1; read-out: permeability
[3] = system: BCRP; test: Apparent permeability in human Caco-2 expressing BCRP cells across apical to basolateral side; assay type: ADME, cell-based; conditions: read-out: permeability
[4] = system: BCRP; test: Apparent permeability in human Caco-2 expressing BCRP cells across apical to basolateral side in presence of novobiocin; assay type: ADME, cell-based; conditions: Caco-2, with novobiocin (concentration not stated), read-out: permeability
[5] = system: MDR1; test: Apparent permeability in MDCKII expressing MDR1 cells across basolateral to apical side; assay type: ADME, cell-based, Canis lupus familiaris, MDCK-II; conditions: dog, MDCK-MDR1; read-out: permeability
[6] = system: MDR1; test: Efflux ratio of apparent permeability across basolateral to apical side to apical to basolateral side in MDCKII expressing MDR1 cells; assay type: ADME, cell-based, Canis lupus familiaris, MDCK-II; conditions: dog, MDCK-MDR1
[7] = system: BCRP; test: Efflux ratio of apparent permeability across basolateral to apical side to apical to basolateral side in human Caco-2 expressing BCRP cells in presence of novobiocin; assay type: ADME, cell-based; conditions: Caco-2, with novobiocin (concentration not stated)
[8] = system: BCRP; test: Permeability in human Caco-2 expressing BCRP cells across apical to basolateral side by measuring ratio of the final amount of the compound in donor and receiver chambers to the initial amount of the compound in the donor chamber relative to control; assay type: ADME, cell-based
[9] = system: BCRP; test: Permeability in human Caco-2 expressing BCRP cells across apical to basolateral side by measuring ratio of the final amount of the compound in donor and receiver chambers to the initial amount of the compound in the donor chamber in presence of novobiocin relative to control; assay type: ADME, cell-based; conditions: Caco-2, with novobiocin (concentration not stated)
[10] = system: BCRP; test: Permeability in human Caco-2 expressing BCRP cells across basolateral to apical side by measuring ratio of the final amount of the compound in donor and receiver chambers to the initial amount of the compound in the donor chamber in presence of novobiocin relative to control; assay type: ADME, cell-based; conditions: Caco-2, with novobiocin (concentration not stated)
[11] = Unbound fraction in mouse plasma by LC-MS/MS analysis relative to control; assay type: ADME
[12] = Plasma protein binding in Kunming mouse assessed as binding rate by LC-MS/MS analysis relative to control; assay type: ADME; conditions: read-out: PPB (converted)
[13] = Protein binding in Kunming mouse brain assessed as binding rate by LC-MS/MS analysis relative to control; assay type: ADME, tissue-based; conditions: read-out: PB (converted)
[14] = AUC (0 to 12 hrs) in Sprague-Dawley rat plasma at 100 mg/kg, iv measured after 0.083 to 24 hrs by HPLC analysis; assay type: ADME, organism-based; parameters: dose 100 mg/kg, time 0.083-24 hrs, route iv
[15] = AUC (0 to infinity) in Sprague-Dawley rat plasma at 100 mg/kg, po measured after 0.083 to 24 hrs by HPLC analysis; assay type: ADME, organism-based; parameters: time 0.083-24 hrs, dose 100 mg/kg, route po
[16] = Oral bioavailability in Sprague-Dawley rat plasma by measuring dose-corrected area under the curve (AUC) oral divided by AUC intravenous at 100 mg/kg measured after 0.083 to 24 hrs by HPLC analysis relative to control; assay type: ADME, organism-based; conditions: time 0.083-24 hrs
[17] = Ratio of drug concentration in total brain to total plasma in Kunming mouse assessed as blood brain barrier permeability measured at 0.5 to 12 hrs by HPLC analysis; conditions: time 0.5-12 hrs
[18] = Ratio of drug concentration in unbound brain to unbound plasma in Kunming mouse assessed as blood brain barrier permeability measured at 0.5 to 12 hrs by HPLC analysis; conditions: time 0.5-12 hrs
[19] = system: Mus musculus; test: Neuroprotective activity in MPTP induced C57BL/6J mouse neurodegenerative model treated with MPTP for 7 days followed by compound administration at 10 to 30 mg/kg, po measured on day 6 to 12 upto 180 secs at 25 rpm by rota-rod test; assay type: functional, organism-based; conditions: dose 10-30 mg/kg, time 6-12 day
[20] = Toxicity in MPTP induced C57BL/6J mouse neurodegenerative model assessed as no change in heart weight treated with MPTP for 7 days followed by compound administration at 10 to 30 mg/kg, po measured upto 32 days; assay type: organism-based; conditions: in vivo, 768 h, dose 10-30 mg/kg, time < 32 day
[21] = Toxicity in MPTP induced C57BL/6J mouse neurodegenerative model assessed as no change in spleen weight treated with MPTP for 7 days followed by compound administration at 10 to 30 mg/kg, po measured upto 32 days; assay type: organism-based; conditions: in vivo, 768 h, dose 10-30 mg/kg, time < 32 day
[22] = system: Mus musculus; test: Neuroprotective activity in MPTP induced C57BL/6J mouse neurodegenerative model assessed as normal fiber innervation in brain treated with MPTP for 7 days followed by compound administration at 30 mg/kg, po by IHC staining method; assay type: functional, organism-based
[23] = system: Mus musculus; test: In vivo antiinflammatory activity in MPTP induced C57BL/6J mouse neurodegenerative model assessed as decrease in IL-1 beta expression treated with MPTP for 7 days followed by compound administration at 30 mg/kg, po by Western blotting analysis; assay type: functional, organism-based
[24] = system: Mus musculus; test: In vivo antiinflammatory activity in MPTP induced C57BL/6J mouse neurodegenerative model assessed as decrease in TNF-alpha expression treated with MPTP for 7 days followed by compound administration at 30 mg/kg, po by Western blotting analysis; assay type: functional, organism-based
[25] = system: Mus musculus; test: Neuroprotective activity in MPTP induced neurodegenerative C57BL/6J mouse model blood assessed as increase in tryptophan metabolite KYNA treated with MPTP for 7 days followed by compound administration at 30 mg/kg, po by LC-MS/MS analysis; assay type: functional, organism-based
[26] = system: Mus musculus; test: Neuroprotective activity in MPTP induced neurodegenerative C57BL/6J mouse model assessed as decrease in tryptophan metabolite NFK in mouse substantia nigra treated with MPTP for 7 days followed by compound administration at 30 mg/kg, po by LC-MS/MS analysis; assay type: functional, organism-based
[27] = system: Mus musculus; test: Neuroprotective activity in MPTP induced neurodegenerative C57BL/6J mouse model assessed as decrease in tryptophan metabolite QUIN in mouse striatum treated with MPTP for 7 days followed by compound administration at 30 mg/kg, po by LC-MS/MS analysis; assay type: functional, organism-based
[28] = system: Mus musculus; test: Neuroprotective activity in MPTP induced neurodegenerative C57BL/6J mouse model assessed as decrease in tryptophan metabolite QUIN in mouse substantia nigra treated with MPTP for 7 days followed by compound administration at 30 mg/kg, po by LC-MS/MS analysis; assay type: functional, organism-based
[29] = target: Glycogen synthase kinase-3 beta (Homo sapiens) (UniProt P49841); test: Inhibition of human wildtype full length GSK3 beta expressed in bacterial system at 10 uM relative to control
Sequence of Glycogen synthase kinase-3 beta (Homo sapiens) (P49841 whole entry, looked up): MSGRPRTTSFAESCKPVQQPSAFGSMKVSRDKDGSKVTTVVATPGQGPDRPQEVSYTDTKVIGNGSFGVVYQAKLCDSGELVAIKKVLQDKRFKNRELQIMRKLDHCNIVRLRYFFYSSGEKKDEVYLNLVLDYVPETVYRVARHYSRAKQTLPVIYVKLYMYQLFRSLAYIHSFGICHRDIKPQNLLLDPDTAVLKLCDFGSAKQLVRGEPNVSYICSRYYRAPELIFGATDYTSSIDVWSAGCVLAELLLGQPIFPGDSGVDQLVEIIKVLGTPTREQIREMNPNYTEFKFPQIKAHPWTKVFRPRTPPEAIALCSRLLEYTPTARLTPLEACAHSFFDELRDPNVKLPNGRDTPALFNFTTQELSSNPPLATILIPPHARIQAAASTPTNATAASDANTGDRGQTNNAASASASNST

Sequence of Indoleamine 2,3-dioxygenase 1 (P14902 whole entry, the tested form may be a part): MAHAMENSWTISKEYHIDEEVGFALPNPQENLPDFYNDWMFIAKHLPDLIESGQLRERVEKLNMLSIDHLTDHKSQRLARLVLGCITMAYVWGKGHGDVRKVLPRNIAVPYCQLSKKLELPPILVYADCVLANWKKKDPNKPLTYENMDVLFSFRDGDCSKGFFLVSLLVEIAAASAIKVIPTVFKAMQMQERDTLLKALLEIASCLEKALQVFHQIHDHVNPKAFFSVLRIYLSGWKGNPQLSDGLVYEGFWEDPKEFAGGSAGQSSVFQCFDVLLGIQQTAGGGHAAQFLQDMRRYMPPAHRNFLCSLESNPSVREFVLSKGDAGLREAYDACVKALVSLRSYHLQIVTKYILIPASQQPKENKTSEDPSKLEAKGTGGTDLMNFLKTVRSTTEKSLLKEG

Compound: O[C@@H]1CCCC[C@H]1CNc1cc(Br)cc2[nH]ncc12
- IC50 [1]: 640 nM
- Papp A→B [2]: 13.5 ×10⁻⁶ cm/s
- Papp A→B [3]: 18.8 ×10⁻⁶ cm/s
- Papp A→B [4]: 19.4 ×10⁻⁶ cm/s
- Papp B→A [5]: 10.3 ×10⁻⁶ cm/s
- efflux ratio [6]: 0.77
- efflux ratio [7]: 0.51
- recovery [8]: 42.2%
- recovery [9]: 43.8%
- recovery [10]: 74.9%
- Fu [11]: 0.73%
- fraction unbound [12]: 0.0073
- fraction unbound [13]: 0.0025
- AUC(0-t) [14]: 30300 ng·h/mL
- AUC(0-inf) [15]: 26600 ng·h/mL
- bioavailability [16]: 73.2%
- Ratio [17]: 0.81%
- K(p,uu,brain) [18]: 0.28%
- Activity [19]: Active
- Activity [20]: Non-Toxic
- Activity [21]: Non-Toxic
- Activity [22]: Active
- Activity [23]: Active
- Activity [24]: Active
- Activity [25]: Active
- Activity [26]: Active
- Activity [27]: Active
- Activity [28]: Active
- inhibition [29]: > 90%
